These results are taken from patent publication US12686704B2, “Procoagulant peptides and use thereof” (RAMBAM MED-TECH LTD., priority 2021, dated 2026).

The test system of experiment [1] is rat. The experiment can be described thus: Rat models of uncontrolled hemorrhage (spleen transection, liver laceration). The conditions noted are these: for bleeding (blood loss): 150 μg/kg subcutaneous half an hour before surgery, I.V. 2 minutes following trauma, or topical, FIGS. 2A-2F; for bleeding (blood loss) / bleeding time: vs PBS control; for bleeding time: FIG. 2G. Format: in vivo. On the procedure: FIGS. 2A-2I include vertical bar graphs showing the effect of modified heparanase procoagulant peptides of the invention using different rat bleeding models. Two rat models of uncontrolled hemorrhage were applied. The models include spleen transection (2A) and liver laceration (2B). Blood loss was recorded every 2 minutes for the first 10 minutes after injury and at 5-minutes intervals thereafter for a total of 30 minutes. Shed blood were collected by placing reweighed gauze below the organ targeted for injury. The gauze was changed and weighed at the blood-loss intervals. Peptides 16 and 16AC were injected subcutaneously (150 μg/kg) half an hour before surgery (2A-2B) or intravenously (I.V.) in the saphenous vein (150 μg/kg) 2 minutes following the trauma (2C, 2D, 2H, and 2I). The third route of administration was topical application (150 μg/kg) on the incision site (2E-2F). The peptides were dissolved in phosphate-buffered saline (PBS) and added at a rate of a drop every 5 seconds. Control group (‘C’) was administered (either subcutaneously, intravenously, or topically) with the vehicle phosphate buffered saline (PBS). […] Mann-Whitney U test was used. Results represent mean±SD. *p<0.01, **p<0.001. In addition to Peptide 16 and Peptide 16AC, Peptide 16C, and Peptide 16A were also analyzed and compared in (2H and 2I).
Two rat models of uncontrolled hemorrhage were applied as previously described (Morgan et al., 2015; JAMA Surg.). The models included spleen transection (FIG. 2A) and liver laceration (FIG. 2B). Briefly, blood loss was recorded every 2 minutes for the first 10 minutes after injury and at 5-minute intervals thereafter for a total of 30 minutes. Shed blood were collected by placing reweighed gauze below the organ targeted for injury. The gauze was changed and weighed at the blood-loss intervals. Peptides 16 and 16AC were injected subcutaneous (150 μg/kg) half an hour before surgery (FIGS. 2A-2B) or intra-venous (I.V.) in the saphenous vein (150 μg/kg) 2 minutes following the trauma (FIGS. 2C-2D). The third route of administration was topical application (150 μg/kg) on the incision site (FIGS. 2E-2F). The peptides, dissolved in phosphate-buffered saline (PBS), were added at a rate of a drop every 5 seconds. Control (C) group was injected or topical applied with the vehicle phosphate buffered saline (PBS).

Experiment [2] has as its system HUVEC cells. The experiment can be described thus: Immunostaining of heparanase, TF, TFPI and TFPI-2 in HUVECs. In kind it is cell-based, human. The conditions noted are these: 10 μg/ml; overnight incubation at 37° C.; vs control cells. As to the method:
FIGS. 6A-6F include micrographs of immunohistochemistry assays showing that heparanase procoagulant peptides increase the level of heparanase in HUVECs. Ten (10) μg/ml of peptide 16 (6B-6C) or 10 μg/ml of peptide 16AC (6E-6F) was added to HUVEC cells and compared to control cells (6A-6D). After 30 min or overnight incubation at 37° C., the cells were fixed using formaldehyde 4%, permeabilized, blocked and reacted with specific heparanase antibody. […] Images were visualized through ×50 magnitude, with 0.82 MDC objective lens, captured with a Nikon E995 digital camera (Nikon, Tokyo, Japan), and processed with Adobe Photoshop software (Adobe Systems, San Jose, CA, USA).
FIGS. 7A-7F include micrographs of immunohistochemistry assays showing that heparanase procoagulant peptides increase the level of TF in HUVECs. Ten (10) μg/ml of peptide 16 (7B-7C) or 10 μg/ml of peptide 16AC (7E-7F) was added to HUVEC cells and compared to control cells (7A-7D). After 30 min or overnight incubation at 37° C., the cells were fixed using formaldehyde 4%, permeabilized, blocked and reacted with specific TF antibody. Images were visualized through ×50 magnitude, with 0.82 MDC objective lens, captured with a Nikon E995 digital camera (Nikon, Tokyo, Japan), and processed with Adobe Photoshop software (Adobe Systems, San Jose, CA, USA).
FIGS. 8A-8F include micrographs of immunohistochemistry assays showing that heparanase procoagulant peptides increase the level of TFPI in HUVECs. Ten (10) μg/ml of peptide 16 (8B-8C) or 10 μg/ml of peptide 16AC (8E-8F) was added to HUVEC cells and compared to control cells (8A-8D). After 30 min or overnight incubation at 37° C., the cells were fixed using formaldehyde 4%, permeabilized, blocked and reacted with specific TFPI-1 antibody. Images were visualized through ×50 magnitude, with 0.82 MDC objective lens, captured with a Nikon E995 digital camera (Nikon, Tokyo, Japan), and processed with Adobe Photoshop software (Adobe Systems, San Jose, CA, USA).
FIGS. 9A-9F include micrographs of immunohistochemistry assays showing that heparanase procoagulant peptides increase the level of TFPI-2 in HUVECs. Ten (10) μg/ml of peptide 16 (9B-9C) or 10 μg/ml of peptide 16AC (9E-9F) was added to HUVEC cells and compared to control cells (9A-9D). After 30 min or overnight incubation at 37° C., the cells were fixed using formaldehyde 4%, permeabilized, blocked and reacted with specific TFPI-2 antibody. Images were visualized through ×50 magnitude, with 0.82 MDC objective lens, captured with a Nikon E995 digital camera (Nikon, Tokyo, Japan), and processed with Adobe Photoshop software (Adobe Systems, San Jose, CA, USA).
Briefly, 10 μg/ml of peptide 16 or 10 μg/ml of peptide 16AC was added to HUVEC cells and compared to control cells (6A-6D). After 30 min or overnight incubation at 37° C., the cells were fixed using formaldehyde 4%, permeabilized, blocked and reacted with specific antibodies targeting heparanase, TF, TFPI-1, and TFPI-2 (FIGS. 6-9, respectively).

Turning to “acetyl-GSKRRKLRVYLHCT-amid (Ac-GSKRRKLRVYLHCT-NH2) [Peptide 16AC, peptide 16 comprising a C-terminal amid group and an N-terminal acetyl group]”, in experiment [1], the “bleeding (blood loss)” value is given as “significant reduction”. Further, the “effect in reducing the bleeding, comparison between peptides” value in experiment [1] (150 μg/kg, FIGS. 2A-2I (16C and 16A: I.V., FIGS. 2H-2I)) is recorded as “significantly better effect in reducing the bleeding compared to peptide 16”. In experiment [1] (150 μg/kg), the bleeding time result is on record as “significant reduction”. Also, in experiment [2], the “TF level (staining)” value is listed as “strong staining after overnight incubation”, the “TFPI level (staining)” value was “strong staining after overnight incubation”, the “TFPI-2 level (staining)” value is reported as “strong staining after overnight incubation” and the “heparanase level (staining)” value is recorded as “strong staining after overnight incubation”.
With “GSKRRKLRVYLHCT [Peptide 16, peptide comprising the procoagulant domain of heparanase, non-modified]”, the “bleeding (blood loss)” value in experiment [1] is reported as “significant reduction”. Further, in experiment [1] (150 μg/kg), the bleeding time result is reported as “significant reduction”. In experiment [2], the “TF level (staining)” value is given as “strong staining after overnight incubation”, the “TFPI level (staining)” value is on record as “strong staining after overnight incubation”, the “TFPI-2 level (staining)” value is on record as “strong staining after overnight incubation” and the “heparanase level (staining)” value is listed as “strong staining after overnight incubation”.
